Assay results as given in US5278184A, “Synthetic derivatives of pyrrole and pyrrolidine suitable for the therapy of infections caused by rhinoviruses” (Repla Chemical Ltd., priority 1991, dated 1994).
Read-outs that look alike come from different tables or passages of the source.

Legend:
[1] = system: rhinoviruses; conditions: literature; interaction with proteins of the virus capsid; cited from earlier work
[2] = system: Poliomyelitis Virus type 1 (Sb-1); assay: microbe, parasite or virus in culture; format: cell-based; conditions: Vero, read-out: MIC, Sb-1
[3] = system: rhinovirus serotype 22; assay: Protection of HeLa cells from rhinovirus-induced cytopathogenicity (MTT), serotype 22; conditions: Enterovirus, 72 h, read-out: MIC, serotype 22
[4] = system: HeLa cells
[5] = system: rhinovirus serotype 15; assay: Protection of HeLa cells from rhinovirus-induced cytopathogenicity (MTT), serotype 15; conditions: Enterovirus, 72 h, read-out: MIC, serotype 15
[6] = system: rhinovirus serotype 30; assay: Protection of HeLa cells from rhinovirus-induced cytopathogenicity (MTT), serotype 30; conditions: Enterovirus, 72 h, read-out: MIC, serotype 30
[7] = system: rhinovirus serotype 89; assay: Protection of HeLa cells from rhinovirus-induced cytopathogenicity (MTT), serotype 89; conditions: Enterovirus, 72 h, read-out: MIC, serotype 89
[8] = in vitro; conditions: monkey, vero cells
[9] = system: Coxsackie Virus B1 (Coxs); assay: Viral plaque reduction, Coxs on Vero cells; format: cell-based; conditions: Table 1, 50% plaque reduction, 37° C, read-out: MIC, Coxs
[10] = system: HRV-14; assay: Viral plaque reduction, HRV-14 on HeLa cells; format: cell-based, human rhinovirus; conditions: for EC50: Rhinovirus B, HeLa cells, read-out: MIC, HRV-14; for S.I. (Selectivity Index): MTL/MIC ratio / S.I. (Selectivity Index): ratio MTL/MIC: HeLa MTL / HRV-14 MIC; for activity and selectivity to HRV-14 compared with the two previously known compounds: Table 1
[11] = system: rhinovirus serotype 86; assay: Protection of HeLa cells from rhinovirus-induced cytopathogenicity (MTT), serotype 86; conditions: Enterovirus, 72 h, read-out: MIC, serotype 86
[12] = system: rhinovirus serotype 50; assay: Protection of HeLa cells from rhinovirus-induced cytopathogenicity (MTT), serotype 50; conditions: Enterovirus, 72 h, read-out: MIC, serotype 50
[13] = system: Herpes Simplex Virus type 1 (HSV-1); assay: Viral plaque reduction, HSV-1 on Vero cells; format: cell-based; conditions: Human alphaherpesvirus 1, Vero, read-out: MIC, HSV-1
[14] = system: different rhinoviruses serotypes; assay: Protection of HeLa cells from rhinovirus-induced cytopathogenicity (MTT), all serotypes of Table 3; conditions: for EC50: Enterovirus, HeLa, 72 h, read-out: MIC, summary over the serotypes; for effectiveness and selectivity as rhinoviruses inhibiting agent / S.I.: Table 3; for S.I.: nine serotypes, HeLa cells
[15] = in vitro; conditions: human, hela cells
[16] = system: Vesicular Stomatitis Virus (VSV); assay: microbe, parasite or virus in culture; format: cell-based; conditions: Vero, read-out: MIC, VSV
[17] = system: Virus Vaccinicum (VV); assay: Viral plaque reduction, VV on Vero cells; format: cell-based; conditions: Table 1, 50% plaque reduction, 37° C, read-out: MIC, VV
[18] = system: rhinovirus serotype 14; assay: Protection of HeLa cells from rhinovirus-induced cytopathogenicity (MTT), serotype 14; conditions: Enterovirus, 72 h, read-out: MIC, serotype 14
[19] = system: rhinovirus serotype 2; assay: Protection of HeLa cells from rhinovirus-induced cytopathogenicity (MTT), serotype 2; conditions: Enterovirus, 72 h, read-out: MIC, serotype 2
[20] = system: rhinovirus serotype 21; assay: Protection of HeLa cells from rhinovirus-induced cytopathogenicity (MTT), serotype 21; conditions: Enterovirus, 72 h, read-out: MIC, serotype 21
[21] = system: HRV-14; conditions: Table 1; literature value; read-out: MIC, HRV-14 (comparison compounds); cited from earlier work
[22] = HRV14, Table 1 and text, 50% plaque reduction, 33° C
[23] = Table 2, 50% reduction of HRV14 plaques

Molecule	EC50 [2] [µM]	EC50 [3] [nM]	EC50 [5] [nM]	EC50 [6] [nM]	EC50 [7] [nM]	MNTC [8] [µM]	EC50 [9] [µM]	EC50 [10, 22] [nM]	S.I. (Selectivity Index): MTL/MIC ratio ([10]; Table 1 and text)	EC50 [11] [nM]	EC50 [12] [nM]	EC50 [13] [µM]	EC50 [14] [nM]	S.I. [14]	MNTC [15] [µM]	EC50 [16] [µM]	EC50 [17] [µM]	EC50 [18] [nM]	EC50 [19] [nM]	EC50 [20] [nM]	also measured
4-ethoxy-2'-hydroxy-4', 6-dimethoxychalcone [RO 09-0410]																					inhibition of rhinoviruses [1]: inhibit a wide range of rhinoviruses
CCOC(=O)c1ccc(OCCCCC(=O)c2ccc(Cl)s2)cc1 [Compound 360]	80	1400	1600	50	300	> 190	> 190	2000	> 272	300	400	> 190	760	> 717	> 545	> 190	> 190	2700	100		cytotoxicity levels [4]: low cytotoxicity levels; effectiveness and selectivity as rhinoviruses inhibiting agent [14]: the most effective and selective
O=C(CCCCOc1ccc(C2=NCCO2)cc1)c1ccc(Cl)s1 [Compound 366]	200					> 275	> 275	50				> 275			> 410	> 275	> 275				cytotoxicity levels [4]: low cytotoxicity levels
CCOC(=O)c1ccc(OCCCCC(=O)c2cc(C=O)n(C)c2)cc1 [Compound 393, 4-[5-[4-(ethoxycarbonyl)phenoxy]pentanoyl]-1-methyl-1H-pyrrole-, -2-carboxaldeide]		1100	2200	1100	200					140	800		1400	36	50			2000	500	2200	EC50 [10, 23]: 1400 nM; S.I. (Selectivity Index): ratio MTL/MIC ([10]; Table 2): 36
Cn1cc(C(=O)CCCCOc2ccc(C(=O)O)cc2)cc1C=O [Compound 394]	> 380					380	> 380	7000	> 87			> 380			> 610	> 380	> 380				activity and selectivity to HRV-14 compared with the two previously known compounds [10]: less effective, but even more selective to HRV-14
Cn1cc(C(=O)CCCCOc2ccc(C3=NCCO3)cc2)cc1C=O [Compound 395]	> 280					> 280	> 280	5000	> 85			> 280			> 425	> 280	> 280				activity and selectivity to HRV-14 compared with the two previously known compounds [10]: less effective, but even more selective to HRV-14
Cn1cccc1C(=O)CCCCOc1ccc(C2=NCCO2)cc1 [Compound 414]	> 300					> 300	> 300	800	> 762			> 300			> 610	> 300	> 300				cytotoxicity levels [4]: low cytotoxicity levels
CCOC(=O)c1ccc(OCCCCC(=O)c2ccc(C)s2)cc1 [Compound 514]		1400	900	140	300					140	400		630	> 917	> 578			1700	500	100	EC50 [10, 23]: 3400 nM; S.I. (Selectivity Index): ratio MTL/MIC ([10]; Table 2): > 170; effectiveness and selectivity as rhinoviruses inhibiting agent [14]: the most effective and selective
Cc1ccc(C(=O)CCCCOc2ccc(C3=NCCO3)cc2)s1 [Compound 522]		11600	300	1400	300					140	1100		2000	> 145	> 291			300	1100	1700	EC50 [10, 23]: 2900 nM; S.I. (Selectivity Index): ratio MTL/MIC ([10]; Table 2): > 100
Cc1csc(C(=O)CCCCOc2ccc(C3=NCCO3)cc2)c1 [Compound 529, 2-[5-[4-(4,5-Dihydro-2-oxazolyl)phenoxy]pentanoyl]-4-methylthiophene]		11600	200	5800	2900					900	4300		4100	71	291			1100	2900	5800	EC50 [10, 23]: 6900 nM; S.I. (Selectivity Index): ratio MTL/MIC ([10]; Table 2): 42
CCCCCCCCCCCCCCOc1ccc(C(C)=O)o1 [RMI-15,731, 1-[5-(tetradecyloxy)-2-furanyl]ethanone]																					inhibition of rhinoviruses [1]: inhibit a wide range of rhinoviruses
Cc1cc(CCCCCCCOc2ccc(C3=NCCO3)cc2)on1 [WIN 51711, 5-{7-[4-(4,5-dihydro-2-oxazolyl)phenoxy]heptyl}-3-methyl-isoxazole, reference compound]		3500	300	1700	900				45	60	2000		1200	23				600	1700	600	inhibition of rhinoviruses [1]: inhibit a wide range of rhinoviruses; S.I. (Selectivity Index): ratio MTL/MIC ([10]; Table 2): 45; EC50 [21]: 400 nM
